We go through 2 compounds from publication PMC12144510, “SIRT3 Functions as an Eraser of Histone H3K9 Lactylation to Modulate Transcription for Inhibiting the Progression of Esophageal Cancer” (Molecular & Cellular Proteomics : MCP, 2025).

The subject of one experiment is H3K9la in HEK 293T cells. Nature of the experiment: H3K9la level after sodium lactate stimulation. Particulars: 20 mM sodium lactate, 24 h, Figure S4B. The experiment is classed as cell-based, human. Here is the method:
Histone was isolated from HEK 293T cells by acid extraction. In short, HEK 293T cells were treated with 20 mM sodium lactate for 24 h and harvested by centrifugation. The harvested HEK 293T cells were resuspended with lysis buffers (10 mM Tris–HCl pH 8.0, 1 mM KCl, 1.5 mM MgCl2, 1 mM DTT, 2 mM PMSF, and Roche Complete EDTA free protease inhibitor) and incubated at 4 °C for 1 h. The intact nuclei were centrifuged at 2000g at 4 °C for 10 min to form pellets. To extract histones, 0.4 M H2SO4 was added to the suspension nucleus and then rotated overnight at 4 °C. After removal of nuclear debris by centrifugation at 10,000g at 4 °C for 10 min, histone was precipitated by adding 100% trichloroacetic acid (trichloroacetic acid final concentration 33%). The precipitated histones were incubated at 4 °C for 10 min and washed with acetone twice. The dried protein particles were dissolved with ddH2O. Subsequently, 4 ∼ 6 μg histone was incubated with 10 μM SIRT3 in 100 μl PBS supplemented by 5 mM NAD^+ at 37 °C for 5 h. The lactylation levels at histone were detected by Western blot.

The test system of a further experiment is ESCC cell. Nature of the experiment: Colony formation assay. The experiment is classed as cell-based, human. Here is the method:
The cells (KYSE30 cells with SIRT3 KO and overexpression) to be observed were counted, and 1000 cells/well were inoculated into the 12-well plate culture plate, and the medium was changed every 3 days. About a week after cell culture, the cells were washed twice with PBS and fixed with 1 ml 4% paraformaldehyde for 10 min. The cells were stained with crystal violet solution for 5 to 10 min, and the excess crystal violet solution was washed away with PBS. The formation of cell clones was photographed. The results were analyzed by ImageJ software (v.ImageJ2).
The cells were counted and 1000 cells were inoculated in 6-well plate plates, and the medium was changed every 3 days. After about 1 week of cell culture, the cells were washed twice with PBS and fixed with 1 ml 4% paraformaldehyde for 30 min. Dye crystal violet for 5 to 10 min and then the cells were washed with PBS. The formation of cell clones was photographed and analyzed using ImageJ software.

The test system of the next experiment is SIRT3. Further details: method as in PMID 26120888. Particulars: cited from earlier work.
A further experiment concerns H3K9la. Nature of the experiment: H3K9la level in cells with SIRT3 inhibitor (Western blot). The format is cell-based, human.
Experiment [1] relates to KYSE30 cells. As to the kind of experiment: Cell proliferation / viability (CCK-8). The format is cell-based, human. Particulars: ESCC cell (KYSE30), CCK-8, n = 8; supplemental Fig. S2G.
Experiment [2] relates to KYSE30 cells. As to the kind of experiment: Cell migration (wound healing assay). The format is cell-based, human. Particulars: n = 8, supplemental Fig. S2H. The procedure:
The wound healing assay involved seeding cells in 6-well plates. After the cells (KYSE30 cells with SIRT3 KO and overexpression) were fused, they were scraped off with the tip of the pipette, and the floating cells were washed away with PBS. Immediately afterward, the wounds were photographed. After culture in serum-free medium for 24 h, the wounds were photographed again.

Entries after “also recorded” stand apart in the source; their conditions may differ.

`CC(O)C(=O)[O-].[Na+]` (stereo not shown) [sodium lactate]: the H3K9la level entry in the experiment with H3K9la in HEK 293T cells is “increased”.

As for `c1cncc(-c2cn[nH]n2)c1` [3-TYP], the colony formation entry in the experiment on ESCC cell is “Increasing efficiencies of proliferation and colony formation”. The SIRT3 inhibition selectivity entry in the experiment on SIRT3 was “selective SIRT3 inhibitor”. Further, the “delactylation of SIRT3 with inhibitor” value in the experiment with H3K9la (Figure S2F) is listed as “decreasing delactylation”. Besides, in the experiment on H3K9la (compared with dimethyl sulfoxide, supplemental Fig. S2F), the “level of H3K9la in cells” value is on record as “increased H3K9la levels; also recorded: significantly increased”. Moreover, in the experiment with KYSE30 cells [1], the cell proliferation result was “significantly increased; also recorded: Increasing efficiencies of proliferation”. For the same compound, the cell migration ability result with KYSE30 cells [2] is “significantly increased”.
